Data from patent US20030088061A1, “Materials and methods to modulate ligand binding/enzymatic activity of alpha/beta proteins containing an allosteric regulatory site” (priority 2000, published 2003).

What was measured:
Format in all cases: cell-based
α4β7 = target: T1, α4β7 (Homo sapiens, UniProt P13612+P26010); test: JY/α4β7 cell adhesion to MAdCAM-1/Ig; conditions: PMA-treated JY cells
T1 construct: endogenous in cells; host or cells: JY cells
Procedure: (§1) To assess the selectivity of each compound, an IC50 value was determined for additional binding partner compounds JY/αVβ3 and vitronectin, JY/α4β1 and VCAM/Ig, JY/αdβ2 and VCAM, JY/[…] and ICAM-1, JY/αMβ2 and iC3b, and JY/α4β7 and MAdCAM-1.
(§2) For each IC50 assay, 50 μl of the ligand diluted in 50 mM bicarbonate buffer (pH 9.6) was dispensed per well of an Immulon-4 plate. A single plate was used to test two different ligands, each in triplicate, The coating concentration for the various ligands was as follows: VCAM-1/Ig at 2.0 μg/ml; ICAM-1/Ig at 5.0 μg/ml; vitronectin at 0.5 μg/ml; MAdCAM-1/Ig at 3.0 μg/ml, and iC3b at 5.0 μg/ml. The capture antibody, e.g. anti-CD18 monoclonal antibody TS1/22, was added at a concentration of 10 μg/ml in 50 μl/well. Ligand-coated plates were covered and stored overnight at 4° C. The following day, the contents of each well was decanted, and each plate was washed three times with 200 μl/well D-PBS. The plate was then blocked by the addition of 300 μl/well of 1% BSA/D-PBS solution. Each plate was again covered and incubated at room temperature for at least 1 hour.
(§3) Prior to transfer to the adhesion plate, the compounds were initially diluted by transferring 4.2 μl of the diluted compounds to a 96-well deepwell titer plate containing 0.7 ml/well of RPMI 1640, 0.1% BSA, and 3 ng/ml PMA (Sigma Corp., St. Louis, Mo.) pre-warmed to 37° C. The 1% BSA/D-PBS blocking solution was decanted from the 96-well Immulon-4 plates and replaced with 0.2 ml of diluted compound. For each 96-well plate to be screened, approximately 8×10^6 cells were collected by centrifugation and resuspended in adhesion media (RPMI 1640 containing 0.1% BSA) to a final concentration of 10^6/ml. To prevent PMA-dependent homotypic aggregation in the adhesion assay, the anti-CD18 antibody 22F12C (ICOS Corp., Bothell, Wash.) was added to the cell suspensions to a final concentration of 10 μg/ml, and the cells were incubated at 37° C. for 15 min. This antibody was not added to CD18-dependent adhesion assays involving JY/αLβ2, JY/αdβ2 or JY/αMβ2 and their corresponding ligands ICAM-1, VCAM-1, or iC3b.
(§4) The adhesion assay was initiated by addition of 100 μl of the cell suspension to each well of the Immulon-4 plate. […] Adherent cells were quantitated by determining the absorbance at 570 nm in a plate spectrophotometer. The percentage of cell binding was determined by using the mean values for each triplicate in a given assay and the formula below. […]
(§5) The four compounds Cmpd K, Cmpd W, Cmpd Z, Cmpd D identified in the primary screen were selected for further specificity profiling, whereby their IC50 values were determined in additional integrin-dependent adhesive events. […]

αMβ2 = target: T2, αMβ2 (Homo sapiens, UniProt P05107+P11215); test: JY/αMβ2 cell adhesion to iC3b; conditions: PMA-treated JY cells
T2 construct: expressed in transfected cells; host or cells: JY (human B lymphoblastoid) cells
Procedure: as §1, §2
(§6) Prior to transfer to the adhesion plate, the compounds were initially diluted by transferring 4.2 μl of the diluted compounds to a 96-well deepwell titer plate containing 0.7 ml/well of RPMI 1640, 0.1% BSA, and 3 ng/ml PMA (Sigma Corp., St. Louis, Mo.) pre-warmed to 37° C. The 1% BSA/D-PBS blocking solution was decanted from the 96-well Immulon-4 plates and replaced with 0.2 ml of diluted compound. […]
as §4, §5

αVβ3 = target: T3, αVβ3 (Homo sapiens, UniProt P05106+P06756); test: JY/αVβ3 cell adhesion to vitronectin; conditions: PMA-treated JY cells; read-out: VN αVβ3 IC50
T3 construct: endogenous in cells; host or cells: JY cells
T3 sequence (P06756 31-889 limits assumed): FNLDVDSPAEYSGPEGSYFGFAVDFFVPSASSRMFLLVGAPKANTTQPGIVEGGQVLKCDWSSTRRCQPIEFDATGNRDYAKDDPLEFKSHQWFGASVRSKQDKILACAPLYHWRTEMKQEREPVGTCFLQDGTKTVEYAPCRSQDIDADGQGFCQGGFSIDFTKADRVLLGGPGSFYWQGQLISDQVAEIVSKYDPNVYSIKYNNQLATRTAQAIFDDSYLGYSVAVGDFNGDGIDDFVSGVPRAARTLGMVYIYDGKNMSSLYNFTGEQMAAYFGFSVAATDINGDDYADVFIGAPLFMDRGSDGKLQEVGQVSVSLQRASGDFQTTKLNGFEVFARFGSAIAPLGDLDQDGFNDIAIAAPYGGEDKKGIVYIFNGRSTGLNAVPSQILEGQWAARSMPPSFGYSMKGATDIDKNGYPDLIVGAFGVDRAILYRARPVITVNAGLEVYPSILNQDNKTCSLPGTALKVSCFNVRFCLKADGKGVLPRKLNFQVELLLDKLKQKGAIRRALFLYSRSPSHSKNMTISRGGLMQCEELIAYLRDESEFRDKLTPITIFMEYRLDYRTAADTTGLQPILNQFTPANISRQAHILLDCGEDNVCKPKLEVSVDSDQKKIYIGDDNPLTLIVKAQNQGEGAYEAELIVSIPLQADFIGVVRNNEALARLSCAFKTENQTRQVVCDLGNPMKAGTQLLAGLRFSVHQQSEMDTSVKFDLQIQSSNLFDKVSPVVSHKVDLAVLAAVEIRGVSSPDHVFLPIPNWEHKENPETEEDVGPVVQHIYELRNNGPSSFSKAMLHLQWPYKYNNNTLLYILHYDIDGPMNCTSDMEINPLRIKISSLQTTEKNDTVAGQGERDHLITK
T3 sequence (P06756 891-1048 partner limits assumed): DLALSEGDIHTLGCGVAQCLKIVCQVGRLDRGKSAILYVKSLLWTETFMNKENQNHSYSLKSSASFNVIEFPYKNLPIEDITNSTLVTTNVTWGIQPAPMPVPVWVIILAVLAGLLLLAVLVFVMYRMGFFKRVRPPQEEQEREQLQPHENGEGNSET
T3 sequence (P05106 27-788): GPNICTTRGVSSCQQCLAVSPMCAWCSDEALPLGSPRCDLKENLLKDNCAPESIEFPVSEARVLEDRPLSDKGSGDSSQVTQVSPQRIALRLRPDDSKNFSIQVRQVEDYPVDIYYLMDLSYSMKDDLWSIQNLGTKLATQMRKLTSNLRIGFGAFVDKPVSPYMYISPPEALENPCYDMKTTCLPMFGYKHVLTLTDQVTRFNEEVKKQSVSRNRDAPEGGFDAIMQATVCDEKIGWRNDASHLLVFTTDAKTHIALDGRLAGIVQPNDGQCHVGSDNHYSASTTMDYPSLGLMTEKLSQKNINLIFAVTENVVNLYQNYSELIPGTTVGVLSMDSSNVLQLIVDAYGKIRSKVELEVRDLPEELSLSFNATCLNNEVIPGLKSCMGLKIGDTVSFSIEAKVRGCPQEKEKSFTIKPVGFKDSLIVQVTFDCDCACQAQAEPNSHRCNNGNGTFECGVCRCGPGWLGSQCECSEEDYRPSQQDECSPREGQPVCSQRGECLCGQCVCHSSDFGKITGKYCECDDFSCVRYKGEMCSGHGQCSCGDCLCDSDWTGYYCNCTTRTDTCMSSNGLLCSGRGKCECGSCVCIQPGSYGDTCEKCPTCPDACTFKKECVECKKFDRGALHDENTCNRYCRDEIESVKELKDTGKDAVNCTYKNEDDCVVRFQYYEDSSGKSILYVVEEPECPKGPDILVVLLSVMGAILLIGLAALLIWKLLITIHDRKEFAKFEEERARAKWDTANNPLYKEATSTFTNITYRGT
Procedure: as §1, §2, §6, §4, §5

αLβ2 = target: T4, αLβ2 (Homo sapiens, UniProt P05107+P20701); test: JY/αLβ2 cell adhesion to ICAM-1/Ig; conditions: PMA-treated JY cells
T4 construct: endogenous in cells; host or cells: JY cells
Procedure: as §1, §2, §3, §4, §5

αdβ2 = target: T5, αdβ2 (Homo sapiens, UniProt P05107+Q13349); test: JY/αdβ2 cell adhesion to VCAM; conditions: PMA-treated JY cells
T5 construct: expressed in transfected cells; host or cells: JY cells, plasmid pMHneo/aD
Procedure: as §1, §2, §3, §4, §5

α4β1 = α4β1 (Homo sapiens, UniProt P05556+P13612); test: JY/α4β1 cell adhesion to VCAM-1/Ig; parameters: host or cells: JY cells; conditions: PMA-treated JY cells
Chain of α4β1 (P13612 34-1032): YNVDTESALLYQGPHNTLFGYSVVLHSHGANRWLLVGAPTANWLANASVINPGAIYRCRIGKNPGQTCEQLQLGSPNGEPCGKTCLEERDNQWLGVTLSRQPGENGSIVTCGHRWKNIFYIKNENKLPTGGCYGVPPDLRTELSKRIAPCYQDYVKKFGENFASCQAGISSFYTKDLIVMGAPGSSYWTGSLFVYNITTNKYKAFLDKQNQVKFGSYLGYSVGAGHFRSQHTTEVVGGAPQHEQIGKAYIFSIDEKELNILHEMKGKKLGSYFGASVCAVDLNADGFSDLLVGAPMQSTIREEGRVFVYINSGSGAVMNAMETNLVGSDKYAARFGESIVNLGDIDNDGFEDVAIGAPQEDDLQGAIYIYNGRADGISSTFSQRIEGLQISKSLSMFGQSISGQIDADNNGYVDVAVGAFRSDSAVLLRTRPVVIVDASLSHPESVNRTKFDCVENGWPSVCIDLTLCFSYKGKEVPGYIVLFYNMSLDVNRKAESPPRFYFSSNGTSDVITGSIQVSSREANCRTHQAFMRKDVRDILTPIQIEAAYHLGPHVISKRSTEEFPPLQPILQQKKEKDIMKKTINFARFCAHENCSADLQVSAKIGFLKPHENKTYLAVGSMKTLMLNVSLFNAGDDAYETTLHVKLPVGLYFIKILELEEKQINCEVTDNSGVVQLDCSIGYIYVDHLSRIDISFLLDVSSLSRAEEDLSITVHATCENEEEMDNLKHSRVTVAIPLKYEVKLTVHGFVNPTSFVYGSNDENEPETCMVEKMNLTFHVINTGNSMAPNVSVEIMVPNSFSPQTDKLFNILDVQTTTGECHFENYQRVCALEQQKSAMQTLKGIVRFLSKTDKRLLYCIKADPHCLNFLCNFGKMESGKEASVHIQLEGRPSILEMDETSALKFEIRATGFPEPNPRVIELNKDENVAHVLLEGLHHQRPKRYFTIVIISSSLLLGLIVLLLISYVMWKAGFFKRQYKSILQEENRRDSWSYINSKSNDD
Chain of α4β1 (P05556 21-798): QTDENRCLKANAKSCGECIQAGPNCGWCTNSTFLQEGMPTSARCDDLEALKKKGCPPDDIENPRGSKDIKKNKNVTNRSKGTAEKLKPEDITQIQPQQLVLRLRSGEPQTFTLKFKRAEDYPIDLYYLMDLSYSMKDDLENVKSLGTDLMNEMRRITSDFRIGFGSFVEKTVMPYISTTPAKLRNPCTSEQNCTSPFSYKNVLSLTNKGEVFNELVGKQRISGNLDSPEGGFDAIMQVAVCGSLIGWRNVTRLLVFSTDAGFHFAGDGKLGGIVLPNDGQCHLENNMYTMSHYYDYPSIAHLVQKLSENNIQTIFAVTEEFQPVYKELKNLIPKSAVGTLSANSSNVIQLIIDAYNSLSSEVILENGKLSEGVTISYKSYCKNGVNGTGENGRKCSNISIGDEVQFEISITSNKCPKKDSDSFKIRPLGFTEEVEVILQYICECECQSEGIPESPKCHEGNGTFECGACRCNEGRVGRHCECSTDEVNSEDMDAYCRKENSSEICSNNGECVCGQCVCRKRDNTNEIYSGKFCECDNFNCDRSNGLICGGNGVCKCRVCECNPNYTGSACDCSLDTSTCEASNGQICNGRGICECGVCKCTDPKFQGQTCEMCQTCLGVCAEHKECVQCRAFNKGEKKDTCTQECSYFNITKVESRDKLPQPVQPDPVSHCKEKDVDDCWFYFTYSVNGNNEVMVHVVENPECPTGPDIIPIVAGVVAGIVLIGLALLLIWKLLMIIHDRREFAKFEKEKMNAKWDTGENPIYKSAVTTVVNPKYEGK
Procedure: as §1, §2, §3, §4, §5

T1 sequence (P13612 34-1032): as the sequence (P13612 34-1032) above
T1 sequence (P26010 20-798): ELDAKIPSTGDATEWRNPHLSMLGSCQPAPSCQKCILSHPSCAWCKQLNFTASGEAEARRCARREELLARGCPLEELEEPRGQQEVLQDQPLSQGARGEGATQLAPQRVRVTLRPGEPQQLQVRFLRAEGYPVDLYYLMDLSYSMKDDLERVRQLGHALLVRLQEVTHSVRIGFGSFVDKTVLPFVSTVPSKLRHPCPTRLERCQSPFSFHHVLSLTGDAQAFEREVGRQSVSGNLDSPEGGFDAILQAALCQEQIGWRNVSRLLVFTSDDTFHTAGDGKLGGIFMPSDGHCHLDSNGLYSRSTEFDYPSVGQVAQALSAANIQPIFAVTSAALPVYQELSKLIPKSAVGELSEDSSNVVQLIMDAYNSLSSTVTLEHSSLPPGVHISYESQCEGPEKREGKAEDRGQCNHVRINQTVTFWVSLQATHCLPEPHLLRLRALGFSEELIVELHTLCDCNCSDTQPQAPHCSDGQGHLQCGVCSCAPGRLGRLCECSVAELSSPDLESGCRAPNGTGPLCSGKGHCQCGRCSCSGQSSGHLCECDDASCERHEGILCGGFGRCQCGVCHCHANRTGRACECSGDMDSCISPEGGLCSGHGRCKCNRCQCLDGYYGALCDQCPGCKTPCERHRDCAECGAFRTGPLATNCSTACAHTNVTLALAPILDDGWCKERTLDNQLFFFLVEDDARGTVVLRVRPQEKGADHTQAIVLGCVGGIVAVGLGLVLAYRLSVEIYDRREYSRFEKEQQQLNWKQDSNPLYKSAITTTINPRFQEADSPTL

IC50 (α4β7)	IC50 (αMβ2)	IC50 (αVβ3)	IC50 (αLβ2)	IC50 (αdβ2)	IC50 (α4β1)	Compound
4 µM	7 µM	4 µM	28 µM	> 40 µM	> 40 µM	CC(=O)Oc1ccccc1C(=O)n1c(-c2ccccc2)cc2ccccc21 [Cmpd D]
4 µM	4 µM	6 µM	11 µM	> 40 µM	> 40 µM	O=C(NCc1cccnc1)c1ccccc1C(=O)Nc1sc2ccccc2c1Cl [Cmpd K]
5 µM	4 µM	8 µM	30 µM	> 40 µM	> 40 µM	Nc1ccc(Sc2ccc(NC(=O)CCc3ccccc3)cc2)c(Cl)c1 [Cmpd W]
11 µM			20 µM	> 40 µM	> 40 µM	CC(CN(C)C)NCc1ccccc1Sc1ccc(C(C)(C)C)cc1 (stereo not shown) [Cmpd Z]
